Source: patent US20220031723A1, “POWDERED FOOD COMPOSITION COMPRISING ERIOCITRIN” (EUROMED, S.A., priority 2020, published 2022)

What was measured:
[1] = Urinary excretion of quantified metabolites in collected fractions after extract intake; format: in vivo, human; details: mean ± SD; for Metabolite quantified in urine fraction F1: fraction 0 to 4 h; for Metabolite quantified in urine fraction F2: fraction 4 to 8 h; for Metabolite quantified in urine fraction F3: fraction 8 to 10 h; for Metabolite quantified in urine fraction F4: fraction collected at 24 h (10-24 h); for Metabolite quantified in urine, Total F (24 h): sum of fractions F1-F4
Protocol: Table 4 and Table 5 show the urinary excretion of quantified metabolites at the different fractions collected, i.e., 0-4 h (F1), 4-8 h (F2), 8-10 h (F3), and 10-24 h (F4), after extracts intake.

[2] = Occurrence of plasma and urine metabolites in volunteers after consuming lemon or orange extract; format: in vivo, human
Source text: Through a targeted metabolomic strategy, a total of 17 metabolites were tentatively identified (Table 3). No hesperidin or eriocitrin-derived metabolites were detected in any volunteer at baseline. All the identified metabolites were detected at least in one volunteer, independently of the extract consumed, except for the metabolites M9 (eriodictyol sulfoglucuronide) and M11 (hesperetin sulfoglucuronide), which only were detected after consuming lemon and orange extract, respectively (Table 3). These representative EICs illustrate the metabolites identified in urine (F3 fraction) after consuming lemon (FIG. 3A) and orange (FIG. 3B) extracts, and plasma after consuming lemon (FIG. 3C) and orange (FIG. 3D) extracts. From the 17 metabolites, 16 were detected after consuming lemon extract (except M11), and 15 after consuming orange extract (except M9 and M10 in urine, and M9 and M12 in plasma) (Table 3).

O=C1C[C@@H](c2ccc(O)cc2)Oc2cc(O[C@@H]3O[C@H](C(=O)O)[C@@H](O)[C@H](O)[C@H]3O)cc(O)c21 [M3, Naringenin 7-O-glucuronide]
Metabolite quantified in urine fraction F1 ([1]; after consuming lemon extract): 1.0 ± 0.7 μg/mg creatinine
Metabolite quantified in urine fraction F2 ([1]; after consuming lemon extract): 2.6 ± 4.0 μg/mg creatinine
Metabolite quantified in urine fraction F3 ([1]; after consuming lemon extract): 1.7 ± 1.9 μg/mg creatinine
Metabolite quantified in urine fraction F4 ([1]; after consuming lemon extract): 0.3 ± 0.3 μg/mg creatinine
Metabolite quantified in urine, Total F (24 h) ([1]; after consuming lemon extract): 5.7 ± 6.9 μg/mg creatinine
Metabolite quantified in urine fraction F1 ([1]; after consuming orange extract): 0.1 ± 0.1 μg/mg creatinine
Metabolite quantified in urine fraction F2 ([1]; after consuming orange extract): 0.2 ± 0.6 μg/mg creatinine
Metabolite quantified in urine fraction F3 ([1]; after consuming orange extract): 0.2 ± 0.2 μg/mg creatinine
Metabolite quantified in urine fraction F4 ([1]; after consuming orange extract): 0.2 ± 0.3 μg/mg creatinine
Metabolite quantified in urine, Total F (24 h) ([1]; after consuming orange extract): 0.7 ± 1.5 μg/mg creatinine
Occurrence Plasma LE (number of volunteers in whom metabolite was detected) ([2]; human, in vivo): 16
Occurrence Plasma LE (second column so headed; number of volunteers in whom metabolite was detected) ([2]; human, in vivo): 14
Occurrence Urine LE (number of volunteers in whom metabolite was detected) ([2]; human, in vivo): 16
Occurrence Urine LE (second column so headed; number of volunteers in whom metabolite was detected) ([2]; human, in vivo): 16

O=C1C[C@@H](c2ccc(O[C@@H]3O[C@H](C(=O)O)[C@@H](O)[C@H](O)[C@H]3O)cc2)Oc2cc(O)cc(O)c21 [M5, Naringenin 4'-O-glucuronide]
Metabolite quantified in urine fraction F1 ([1]; after consuming lemon extract): 0.8 ± 0.5 μg/mg creatinine
Metabolite quantified in urine fraction F2 ([1]; after consuming lemon extract): 1.7 ± 2.7 μg/mg creatinine
Metabolite quantified in urine fraction F3 ([1]; after consuming lemon extract): 1.3 ± 1.5 μg/mg creatinine
Metabolite quantified in urine fraction F4 ([1]; after consuming lemon extract): 0.4 ± 0.3 μg/mg creatinine
Metabolite quantified in urine, Total F (24 h) ([1]; after consuming lemon extract): 4.2 ± 5.0 μg/mg creatinine
Metabolite quantified in urine fraction F1 ([1]; after consuming orange extract): 0.1 ± 0.1 μg/mg creatinine
Metabolite quantified in urine fraction F2 ([1]; after consuming orange extract): 0.3 ± 0.5 μg/mg creatinine
Metabolite quantified in urine fraction F3 ([1]; after consuming orange extract): 0.3 ± 0.4 μg/mg creatinine
Metabolite quantified in urine fraction F4 ([1]; after consuming orange extract): 0.3 ± 0.5 μg/mg creatinine
Metabolite quantified in urine, Total F (24 h) ([1]; after consuming orange extract): 1.0 ± 1.5 μg/mg creatinine
Occurrence Plasma LE (number of volunteers in whom metabolite was detected) ([2]; plasma, after consuming lemon extract (LE), n = 16 volunteers): 16
Occurrence Plasma LE (second column so headed; number of volunteers in whom metabolite was detected) ([2]; plasma, fourth occurrence column, probably orange extract (OE), n = 16 volunteers): 14
Occurrence Urine LE (number of volunteers in whom metabolite was detected) ([2]; urine, after consuming lemon extract (LE), n = 16 volunteers): 16
Occurrence Urine LE (second column so headed; number of volunteers in whom metabolite was detected) ([2]; urine, third occurrence column, probably orange extract (OE), n = 16 volunteers): 16

COc1ccc([C@@H]2CC(=O)c3c(O)cc(O[C@@H]4O[C@H](C(=O)O)[C@@H](O)[C@H](O)[C@H]4O)cc3O2)cc1O [M7, Hesperetin 7-O-glucuronide]
Metabolite quantified in urine fraction F1 ([1]; after consuming lemon extract): 1.2 ± 1.4 μg/mg creatinine
Metabolite quantified in urine fraction F2 ([1]; after consuming lemon extract): 4.0 ± 4.7 μg/mg creatinine
Metabolite quantified in urine fraction F3 ([1]; after consuming lemon extract): 2.7 ± 2.5 μg/mg creatinine
Metabolite quantified in urine fraction F4 ([1]; after consuming lemon extract): 0.6 ± 0.6 μg/mg creatinine
Metabolite quantified in urine, Total F (24 h) ([1]; after consuming lemon extract): 8.5 ± 9.2 μg/mg creatinine
Metabolite quantified in urine fraction F1 ([1]; after consuming orange extract): 0.2 ± 0.6 μg/mg creatinine
Metabolite quantified in urine fraction F2 ([1]; after consuming orange extract): 2.1 ± 5.7 μg/mg creatinine
Metabolite quantified in urine fraction F3 ([1]; after consuming orange extract): 2.2 ± 3.6 μg/mg creatinine
Metabolite quantified in urine fraction F4 ([1]; after consuming orange extract): 1.1 ± 3.3 μg/mg creatinine
Metabolite quantified in urine, Total F (24 h) ([1]; after consuming orange extract): 5.6 ± 13.2 μg/mg creatinine
Occurrence Plasma LE (number of volunteers in whom metabolite was detected) ([2]; human, in vivo): 16
Occurrence Plasma LE (second column so headed; number of volunteers in whom metabolite was detected) ([2]; human, in vivo): 16
Occurrence Urine LE (number of volunteers in whom metabolite was detected) ([2]; human, in vivo): 16
Occurrence Urine LE (second column so headed; number of volunteers in whom metabolite was detected) ([2]; human, in vivo): 16

COc1ccc(C2CC(=O)c3c(O)cc(O)cc3O2)cc1O[C@@H]1O[C@H](C(=O)O)[C@@H](O)[C@H](O)[C@H]1O (stereo partly shown) [M8, Hesperetin 3'-O-glucuronide]
Metabolite quantified in urine fraction F1 ([1]; after consuming lemon extract): 2.1 ± 2.3 μg/mg creatinine
Metabolite quantified in urine fraction F2 ([1]; after consuming lemon extract): 10.7 ± 11.3 μg/mg creatinine
Metabolite quantified in urine fraction F3 ([1]; after consuming lemon extract): 9.2 ± 7.7 μg/mg creatinine
Metabolite quantified in urine fraction F4 ([1]; after consuming lemon extract): 2.2 ± 2.4 μg/mg creatinine
Metabolite quantified in urine, Total F (24 h) ([1]; after consuming lemon extract): 24.2 ± 23.7 μg/mg creatinine
Metabolite quantified in urine fraction F1 ([1]; after consuming orange extract): 0.5 ± 1.5 μg/mg creatinine
Metabolite quantified in urine fraction F2 ([1]; after consuming orange extract): 4.3 ± 11.5 μg/mg creatinine
Metabolite quantified in urine fraction F3 ([1]; after consuming orange extract): 3.3 ± 4.2 μg/mg creatinine
Metabolite quantified in urine fraction F4 ([1]; after consuming orange extract): 1.8 ± 1.6 μg/mg creatinine
Metabolite quantified in urine, Total F (24 h) ([1]; after consuming orange extract): 9.9 ± 18.9 μg/mg creatinine
Occurrence Plasma LE (number of volunteers in whom metabolite was detected) ([2]; human, in vivo): 16
Occurrence Plasma LE (second column so headed; number of volunteers in whom metabolite was detected) ([2]; human, in vivo): 16
Occurrence Urine LE (number of volunteers in whom metabolite was detected) ([2]; human, in vivo): 16
Occurrence Urine LE (second column so headed; number of volunteers in whom metabolite was detected) ([2]; human, in vivo): 16

O=C1C[C@@H](c2ccc(O)c(O)c2)Oc2cc(O)cc(O)c21 [M12, Eriodictyol]
Occurrence Plasma LE (number of volunteers in whom metabolite was detected) ([2]; human, in vivo): 16
Occurrence Plasma LE (second column so headed; number of volunteers in whom metabolite was detected) ([2]; human, in vivo): 0
Occurrence Urine LE (number of volunteers in whom metabolite was detected) ([2]; human, in vivo): 14
Occurrence Urine LE (second column so headed; number of volunteers in whom metabolite was detected) ([2]; human, in vivo): 4

COc1ccc(C2CC(=O)c3c(O)cc(O)cc3O2)cc1OS(=O)(=O)O (stereo not shown) [M14, Hesperetin 3'-O-sulfate]
Metabolite quantified in urine fraction F1 ([1]; after consuming lemon extract): 1.9 ± 2.6 μg/mg creatinine
Metabolite quantified in urine fraction F2 ([1]; after consuming lemon extract): 4.3 ± 4.5 μg/mg creatinine
Metabolite quantified in urine fraction F3 ([1]; after consuming lemon extract): 3.3 ± 3.1 μg/mg creatinine
Metabolite quantified in urine fraction F4 ([1]; after consuming lemon extract): 0.7 ± 0.6 μg/mg creatinine
Metabolite quantified in urine, Total F (24 h) ([1]; after consuming lemon extract): 9.0 ± 9.1 μg/mg creatinine
Metabolite quantified in urine fraction F1 ([1]; after consuming orange extract): 0.1 ± 0.3 μg/mg creatinine
Metabolite quantified in urine fraction F2 ([1]; after consuming orange extract): 1.2 ± 3.3 μg/mg creatinine
Metabolite quantified in urine fraction F3 ([1]; after consuming orange extract): 1.9 ± 3.1 μg/mg creatinine
Metabolite quantified in urine fraction F4 ([1]; after consuming orange extract): 0.6 ± 0.6 μg/mg creatinine
Metabolite quantified in urine, Total F (24 h) ([1]; after consuming orange extract): 3.8 ± 7.3 μg/mg creatinine
Occurrence Plasma LE (number of volunteers in whom metabolite was detected) ([2]; human, in vivo): 16
Occurrence Plasma LE (second column so headed; number of volunteers in whom metabolite was detected) ([2]; human, in vivo): 16
Occurrence Urine LE (number of volunteers in whom metabolite was detected) ([2]; human, in vivo): 16
Occurrence Urine LE (second column so headed; number of volunteers in whom metabolite was detected) ([2]; human, in vivo): 16

O=C1C[C@@H](c2ccc(O)cc2)Oc2cc(O)cc(O)c21 [M15, Naringenin]
Occurrence Plasma LE (number of volunteers in whom metabolite was detected) ([2]; human, in vivo): 6
Occurrence Plasma LE (second column so headed; number of volunteers in whom metabolite was detected) ([2]; human, in vivo): 2
Occurrence Urine LE (number of volunteers in whom metabolite was detected) ([2]; human, in vivo): 9
Occurrence Urine LE (second column so headed; number of volunteers in whom metabolite was detected) ([2]; human, in vivo): 5

COc1cc([C@@H]2CC(=O)c3c(O)cc(O)cc3O2)ccc1O [M16, Homoeriodictyol]
Occurrence Plasma LE (number of volunteers in whom metabolite was detected) ([2]; human, in vivo): 15
Occurrence Plasma LE (second column so headed; number of volunteers in whom metabolite was detected) ([2]; human, in vivo): 1
Occurrence Urine LE (number of volunteers in whom metabolite was detected) ([2]; human, in vivo): 12
Occurrence Urine LE (second column so headed; number of volunteers in whom metabolite was detected) ([2]; human, in vivo): 1

COc1ccc([C@@H]2CC(=O)c3c(O)cc(O)cc3O2)cc1O [M17, Hesperetin]
Occurrence Plasma LE (number of volunteers in whom metabolite was detected) ([2]; human, in vivo): 8
Occurrence Plasma LE (second column so headed; number of volunteers in whom metabolite was detected) ([2]; human, in vivo): 3
Occurrence Urine LE (number of volunteers in whom metabolite was detected) ([2]; human, in vivo): 5
Occurrence Urine LE (second column so headed; number of volunteers in whom metabolite was detected) ([2]; human, in vivo): 8

Eriodictyol sulfoglucuronide [M9]
Occurrence Plasma LE (number of volunteers in whom metabolite was detected) ([2]; human, in vivo): 15
Occurrence Plasma LE (second column so headed; number of volunteers in whom metabolite was detected) ([2]; human, in vivo): 0
Occurrence Urine LE (number of volunteers in whom metabolite was detected) ([2]; human, in vivo): 5
Occurrence Urine LE (second column so headed; number of volunteers in whom metabolite was detected) ([2]; human, in vivo): 0

Hesperetin sulfoglucuronide [M11]
Occurrence Plasma LE (number of volunteers in whom metabolite was detected) ([2]; human, in vivo): 0
Occurrence Plasma LE (second column so headed; number of volunteers in whom metabolite was detected) ([2]; human, in vivo): 8
Occurrence Urine LE (number of volunteers in whom metabolite was detected) ([2]; human, in vivo): 0
Occurrence Urine LE (second column so headed; number of volunteers in whom metabolite was detected) ([2]; human, in vivo): 7
